Test systems include BT-549 breast; EKVX NSCLC; HCT-116 colon; HL-60(TB) leukemia; HOP-62 NSCLC; KM12 colon; MALME-3M melanoma; NCI/ADR-RES ovarian; OVCAR-4 ovarian; OVCAR-8 ovarian; RXF 393 renal; SF-539 CNS; SN12C renal; TK-10 renal; U251 CNS; CCRF-CEM leukemia; A498 renal.
What all share (assay): growth of human tumour cells (NCI), 48 h

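All cell lines were grown in 96-well plates and treated with compound for 48 hours. At the TGI there is no net growth.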

The record followed here is PubChem BioAssay (NCI).

For the compound `N#CC1CCN2N=C(c3ccccc3)SC12c1ccccc1` (stereo unspecified), the TGI in the test on BT-549 breast is more than 100 µM; in the test on EKVX NSCLC, 97.3 µM; in the test on HCT-116 colon, more than 100 µM; in the test on HL-60(TB) leukemia it was more than 100 µM; with HOP-62 NSCLC, more than 100 µM; in the test with KM12 colon it was more than 100 µM. Further, the TGI in the test on MALME-3M melanoma, in the test on NCI/ADR-RES ovarian, with OVCAR-4 ovarian, in the test with OVCAR-8 ovarian, with RXF 393 renal and with SF-539 CNS was more than 100 µM throughout. Besides, the TGI in the test on SN12C renal, in the test on TK-10 renal and in the test on U251 CNS was more than 100 µM each time.

On to `Cc1c(C(=O)O)c2cc3ccccc3cc2c(=O)n1C`, for which the TGI with BT-549 breast, in the test with EKVX NSCLC, in the test on HL-60(TB) leukemia, with KM12 colon, in the test with MALME-3M melanoma and in the test on NCI/ADR-RES ovarian was more than 10 µM each time. The TGI in the test on OVCAR-4 ovarian, in the test on OVCAR-8 ovarian, with RXF 393 renal, in the test with SF-539 CNS, with SN12C renal and in the test with TK-10 renal was more than 10 µM each time. This compound displayed a TGI in the test with U251 CNS of more than 10 µM.

As for `OCC1OC(n2nc(-c3ccccc3)nc2-c2cnccn2)C(O)C1O` (stereo unspecified), the TGI in the test on BT-549 breast, in the test on CCRF-CEM leukemia, in the test on EKVX NSCLC, in the test on HCT-116 colon, in the test on HL-60(TB) leukemia and in the test on HOP-62 NSCLC was more than 100 µM each time. The TGI in the test on KM12 colon, with NCI/ADR-RES ovarian, in the test on OVCAR-4 ovarian, with OVCAR-8 ovarian, in the test with SF-539 CNS and in the test with SN12C renal was more than 100 µM each time. Further, the TGI in the test with TK-10 renal and in the test on U251 CNS was more than 100 µM each time.

As to `COC(=NCCC1=CCCCC1)OC`, the TGI in the test with A498 renal, with BT-549 breast, in the test with CCRF-CEM leukemia, in the test on EKVX NSCLC, in the test with HCT-116 colon and with HOP-62 NSCLC was more than 100 µM each time. The TGI in the test on KM12 colon, in the test on MALME-3M melanoma, with NCI/ADR-RES ovarian, in the test with OVCAR-4 ovarian, in the test with OVCAR-8 ovarian and in the test on RXF 393 renal was more than 100 µM in each case. Further, the TGI in the test on TK-10 renal and in the test with U251 CNS was more than 100 µM throughout.

For `Cc1ccc(-n2c(Cn3nnc(-c4cccnc4)n3)nn(C3OC(COC(=O)c4ccccc4)C(OC(=O)c4ccccc4)C3OC(=O)c3ccccc3)c2=S)cc1` (stereo unspecified), the TGI in the test on BT-549 breast, in the test with CCRF-CEM leukemia, in the test with EKVX NSCLC, in the test on HCT-116 colon, in the test on HOP-62 NSCLC and in the test on KM12 colon was more than 100 µM each time. Besides, the TGI in the test with MALME-3M melanoma, in the test on NCI/ADR-RES ovarian, in the test on OVCAR-4 ovarian, in the test with OVCAR-8 ovarian, in the test with RXF 393 renal and in the test with SF-539 CNS was more than 100 µM each time. Also, the TGI with SN12C renal, with TK-10 renal and in the test with U251 CNS was more than 100 µM each time.

As for `COc1ccc(C2=NN(c3ccccc3)C(c3cc4cc(Br)ccc4nc3Cl)C2)cc1` (stereo unspecified), the TGI with BT-549 breast, in the test on CCRF-CEM leukemia, with EKVX NSCLC, in the test with HCT-116 colon, in the test on HL-60(TB) leukemia and with HOP-62 NSCLC was more than 25 µM in each case. The TGI in the test with KM12 colon, with MALME-3M melanoma, in the test on NCI/ADR-RES ovarian, in the test on OVCAR-4 ovarian, in the test on OVCAR-8 ovarian and in the test on RXF 393 renal was more than 25 µM in each case. The TGI with SF-539 CNS and in the test with SN12C renal was more than 25 µM in each case.

In the case of `COC(=O)/C=C1/N=C(N(C)/N=C/c2ccccc2)NC1=O`, the TGI with BT-549 breast, with CCRF-CEM leukemia, in the test with EKVX NSCLC, with HCT-116 colon, in the test on HL-60(TB) leukemia and in the test on HOP-62 NSCLC was more than 100 µM in each case. The TGI with KM12 colon, in the test on MALME-3M melanoma, with NCI/ADR-RES ovarian, in the test with OVCAR-4 ovarian, in the test on OVCAR-8 ovarian and with RXF 393 renal was more than 100 µM throughout. For the same compound, the TGI in the test on SF-539 CNS, in the test with SN12C renal and in the test on TK-10 renal was more than 100 µM throughout.

On to `COP1(=O)NCc2ncccc2O1` (stereo unspecified), for which the TGI in the test with A498 renal, in the test with BT-549 breast, with CCRF-CEM leukemia, in the test on EKVX NSCLC, with HCT-116 colon and in the test on HOP-62 NSCLC was more than 100 µM throughout. Besides, the TGI with KM12 colon, in the test on NCI/ADR-RES ovarian, in the test with OVCAR-4 ovarian, in the test with OVCAR-8 ovarian, with RXF 393 renal and in the test on SF-539 CNS was more than 100 µM each time. Moreover, the TGI in the test with SN12C renal and in the test with U251 CNS was more than 100 µM each time.

Consider `CCN(CC)Cc1nc(C2CCC([N+](=O)[O-])O2)no1` (stereo unspecified), for which the TGI in the test with BT-549 breast is 56.7 µM; in the test with CCRF-CEM leukemia, more than 100 µM; in the test with EKVX NSCLC it was more than 100 µM; with HCT-116 colon it was 60.4 µM; in the test on HL-60(TB) leukemia, 40.5 µM; in the test on HOP-62 NSCLC it was 82.7 µM. For the same compound, the TGI was more than 100 µM in the test with KM12 colon; 30.1 µM in the test with MALME-3M melanoma; 76.3 µM in the test on NCI/ADR-RES ovarian; more than 100 µM with OVCAR-4 ovarian; more than 100 µM with OVCAR-8 ovarian; 86.8 µM in the test with RXF 393 renal. Further, the TGI in the test on SF-539 CNS was 49 µM; in the test on SN12C renal it was more than 100 µM; in the test with TK-10 renal, more than 100 µM; with U251 CNS, 62.3 µM.

`CC1C/C(=N\N(C)C)C(C#N)(C#N)C1(C#N)C#N` (stereo unspecified): the TGI in the test with BT-549 breast is 22.1 µM; in the test with CCRF-CEM leukemia, more than 100 µM; in the test on EKVX NSCLC it was 56.1 µM; in the test on HCT-116 colon, 38.4 µM; in the test with HL-60(TB) leukemia, more than 100 µM; in the test on HOP-62 NSCLC it was 39.4 µM. The TGI was more than 31.6 µM with KM12 colon; 13.7 µM with MALME-3M melanoma; 75.8 µM with NCI/ADR-RES ovarian; 25.6 µM with OVCAR-4 ovarian; 45 µM in the test on OVCAR-8 ovarian; 23.9 µM with RXF 393 renal. The TGI in the test on SF-539 CNS was 34.8 µM; in the test on SN12C renal, 34.4 µM; in the test with TK-10 renal it was 27.6 µM; in the test with U251 CNS it was 40.1 µM.
